{
  "source": "patent US20210154170A1",
  "about": "“METHODS OF TREATING NEUROPATHIC PAIN” (Biogen MA Inc., priority 2018, published 2021)",
  "system": "healthy participants",
  "assay": "Phase 1 cross-over study, ambulatory blood pressure monitoring (ABPM)",
  "type": "in vivo, human",
  "settings": "for DBP: Change >10 and absolute value >80 mmHg, observations / SBP: Change >10 and absolute value >130 mmHg, observations: 300-400 mg repeat dose; for BIIB074-Placebo difference in change of 24 h average DBP / BIIB074-Placebo difference in change of 24 h average SBP / LS Mean change in 24 h average DBP from baseline / LS Mean change in 24 h average SBP from baseline: outpatient",
  "method": "This was a Phase 1, randomized, double-blind, placebo-controlled, repeat dose, 2-period cross-over study to investigate the effect of BIIB074 300-400 mg bid on ambulatory blood pressure (ABP) in healthy participants (FIG. 2). The study comprised: screening (to occur a maximum of 30 days before the first baseline assessment); two 36-day treatment periods, each preceded by a baseline visit and separated by a 7-day washout (to minimize possible carry over effects); and a follow-up period of 7-14 days after last dose. Prior to this study, no females had received BIIB074; for this reason, a single dose BIIB074 session at the dose level of 400 mg was also conducted in female participants one week prior to the period 1 baseline visit. Following this session, some participants were predicted to exceed the predefined PK limit (area under the plasma concentration-time curve [AUC] 97 μg·h/mL) when receiving 400 mg bid at steady state. Therefore, in the subsequent phases of the study, all female participants received a lower dose of 300 mg bid (males received 400 mg bid).\nParticipants were assigned to treatment sequences in accordance with a randomization schedule generated by Discovery Biometrics, prior to the start of the study, using validated software. Study treatment was BIIB074 400 mg bid for males/300 mg bid for females, or placebo, for 36 days. Prior to dosing, volunteers were randomized into one of the following treatment sequences, BIIB074 (period 1):placebo (period 2) or placebo (period 1):BIIB074 (period 2), and more specifically AB and BA if male and CAB and CBA if female, where A=placebo, B=BIIB074 400 mg bid in males and 300 mg bid in females, C=BIIB074 400 mg single dose in females. Randomization numbers were assigned by the site ensuring there was a balance of sequences (AB/BA and CAB/CBA) in each group. Periods 1 and 2 were double-masked to patients and study personnel.\nThe primary endpoint was change in 24 h average SBP and DBP from baseline to day 36 as determined by ABPM. Secondary outcome measures included: change in 24 h average SBP and DBP from baseline to days 4 and 15; change in average SBP and DBP within a 12 h dosing interval from baseline to days 14 and 35 (inpatient); change in 24 h average ambulatory heart rate from baseline to days 4, 15 and 36; proportion of participants whose 24 h SBP and DBP increased by <5, 5-9, 10-14, 15-19, and >20 mm Hg compared with baseline; PK parameters of BIIB074 following a single oral dose in healthy female participants, and following repeated oral doses given twice daily to healthy male and female participants; PK/pharmacodynamic (PD) analyses to examine the correlation between ABP and plasma levels and/or metrics of the systemic exposure of BIIB074.\nABP was collected over 24 hours on an outpatient basis at baseline and at days 4, 15 and 36, and over 12 hours on an inpatient basis at baseline, and at days 14 and 35. The ABPM device was placed on the non-dominant arm (except in clinical situations that prohibited measuring BP in the non-dominant arm). BP and heart rate were measured every 15 minutes.\nNon-inferiority was based on the one-sided 95% confidence interval (CI) for BIIB074-placebo excluding an effect of >5 mmHg in SBP or DBP. It was planned to recruit approximately 60 participants in order to obtain a minimum of 48 evaluable for ABPM during the repeat dose phase, for at least 90% power, assuming a within-subject standard deviation (SDw) of 8.21 mmHg.\nABPM data were analyzed using a repeated measures mixed effects model, whereby fixed effects were treatment, day, treatment*day, period, average baseline*day, period adjusted baseline*day, sex and treatment*sex; random effect was subject; and repeated effect was day. All summary statistics were carried out using SAS 8.02 for UNIX running under the Harmonisation of Analysis and Reporting Program (HARP) environment. […]",
  "data": [
    {"smiles": "Cl.NC(=O)[C@@H]1CC[C@H](c2ccc(OCc3ccccc3F)cc2)N1", "note": "[Example 1, (5R)-5-(4-{[(2-Fluorophenyl)methyl]oxy}phenyl)-L-prolinamide hydrochloride]", "values": [
      {"measurement": "DBP: Change >10 and absolute value >80 mmHg, observations", "setting": "Day 4, outpatient 24 h", "value": "137 (10.6%) n (%)"},
      {"measurement": "SBP: Change >10 and absolute value >130 mmHg, observations", "setting": "Day 4, outpatient 24 h", "value": "116 (9.0%) n (%)"},
      {"measurement": "DBP: Change >10 and absolute value >80 mmHg, observations", "setting": "Day 15, outpatient 24 h", "value": "109 (8.3%) n (%)"},
      {"measurement": "SBP: Change >10 and absolute value >130 mmHg, observations", "setting": "Day 15, outpatient 24 h", "value": "95 (7.2%) n (%)"},
      {"measurement": "DBP: Change >10 and absolute value >80 mmHg, observations", "setting": "Day 36, outpatient 24 h", "value": "86 (6.9%) n (%)"},
      {"measurement": "SBP: Change >10 and absolute value >130 mmHg, observations", "setting": "Day 36, outpatient 24 h", "value": "63 (5.0%) n (%)"},
      {"measurement": "Slope of linear relationship DBP vs observed plasma concentration", "setting": "PK/PD analysis, inpatient ABPM", "value": "approximately 0.00077±0.00012 mmHg/(ng/mL)"},
      {"measurement": "Slope of linear relationship SBP vs observed plasma concentration", "setting": "PK/PD analysis, inpatient ABPM", "value": "~0.00056±0.00013 mmHg/(ng/mL)"},
      {"measurement": "Average increase of SBP with plasma concentration", "setting": "PK/PD analysis, over the 24 h interval", "value": "< 2", "unit": "mmHg"},
      {"measurement": "Upper bound of one-sided 95% CI for BIIB074-placebo", "setting": "SBP on day 4, outpatient", "value": "~2.2", "unit": "mmHg"},
      {"measurement": "Inpatient 12 h ABPM, difference to placebo", "setting": "after 36 days of therapy", "value": "no significant differences"},
      {"measurement": "Increase in outpatient 24 h SBP or DBP", "setting": "day 36, distribution of individual changes", "value": "no evidence to suggest a significant increase"},
      {"measurement": "Observations with DBP increase >10 mmHg and absolute value >80 mmHg", "setting": "day 36, outpatient", "value": 6.9, "unit": "%"},
      {"measurement": "Observations with SBP increase >10 mmHg and absolute value >130 mmHg", "setting": "day 36, outpatient", "value": 5.0, "unit": "%"},
      {"measurement": "Observations with increase from baseline in SBP>30 mmHg", "setting": "day 36, outpatient 24 h (0%)", "value": "4/1249"},
      {"measurement": "Observations with increase from baseline in DBP>20 mmHg", "setting": "day 36, outpatient 24 h (3%)", "value": "35/1249"},
      {"measurement": "Increase in change from baseline for SBP, DBP, and heart rate", "setting": "inpatient ABPM, days 14 and 35", "value": "2.0-2.5 mmHg/bpm"},
      {"measurement": "Upper bound of one-sided 95% CI for BIIB074-placebo", "setting": "majority of SBP and DBP comparisons on days 4, 15, 36", "value": "< 2", "unit": "mmHg"},
      {"measurement": "Non-inferiority to placebo, outpatient 24 h SBP and DBP", "setting": "one-sided 95% CI excluding effect >5 mmHg", "value": "Non-inferiority of BIIB074 compared to placebo was demonstrated"},
      {"measurement": "BIIB074-Placebo difference in change of 24 h average DBP", "setting": "Day 4", "value": 0.789, "unit": "mmHg"},
      {"measurement": "BIIB074-Placebo difference in change of 24 h average SBP", "setting": "Day 4", "value": 1.006, "unit": "mmHg"},
      {"measurement": "LS Mean change in 24 h average DBP from baseline", "setting": "Day 4, 300-400 mg bid", "value": 1.856, "unit": "mmHg"},
      {"measurement": "LS Mean change in 24 h average SBP from baseline", "setting": "Day 4, 300-400 mg bid", "value": 2.372, "unit": "mmHg"},
      {"measurement": "BIIB074-Placebo difference in change of 24 h average DBP", "setting": "Day 15", "value": 0.645, "unit": "mmHg"},
      {"measurement": "BIIB074-Placebo difference in change of 24 h average SBP", "setting": "Day 15", "value": 0.294, "unit": "mmHg"},
      {"measurement": "LS Mean change in 24 h average DBP from baseline", "setting": "Day 15, 300-400 mg bid", "value": 0.907, "unit": "mmHg"},
      {"measurement": "LS Mean change in 24 h average SBP from baseline", "setting": "Day 15, 300-400 mg bid", "value": 0.915, "unit": "mmHg"},
      {"measurement": "BIIB074-Placebo difference in change of 24 h average DBP", "setting": "Day 36", "value": 0.287, "unit": "mmHg"},
      {"measurement": "BIIB074-Placebo difference in change of 24 h average SBP", "setting": "Day 36", "value": "−0.507", "unit": "mmHg"},
      {"measurement": "LS Mean change in 24 h average DBP from baseline", "setting": "Day 36, 300-400 mg bid", "value": 0.201, "unit": "mmHg"},
      {"measurement": "LS Mean change in 24 h average SBP from baseline", "setting": "Day 36, 300-400 mg bid", "value": "−0.327", "unit": "mmHg"},
      {"measurement": "Change in SBP and DBP, outpatient and inpatient ABPM", "setting": "repeat doses for 36 days", "value": "lack of clinically relevant change"}
    ]}
  ]
}
